Assays:
[1] = test system: Alternaria solani; test: Greenhouse Alternaria solani test in tomato, preventive; assay type: in vivo; settings: 24 h, tomato plants sprayed one day before inoculation, read-out: Efficacy (% control), disease severity vs untreated check
Description: Compounds were dissolved in 2% DMSO/Acetone & then mixed with water to calibrated spray volume of 50 ml. This 50 ml spray solution was poured into the spray bottles for further applications. To test the preventive activity of compounds, healthy young Tomato plants raised in the greenhouse were sprayed with active compound preparation at the stated application rates inside the spray cabinets using hallowcone nozzles. One day after treatment, the plants were inoculated with spore suspension (2% Malt) containing 0.24×10^6 Alternaria solani inoculum. The inoculated plants were then kept in greenhouse chamber at 22-24° C. temperature and 90-95% relative humidity for disease expression. […] Efficacy (% control) of the compounds was calculated by comparing the disease rating in the treatment with untreated control. The sprayed plants were also assessed for compound's phytotoxic effects by recording symptoms like necrosis, chlorosis and stunting.

[2] = test system: Botrytis cinerea; test: Botrytis cinerea (gray mold) in vitro test, radial growth on Potato Dextrose Agar; assay type: cell-based; settings: 168 h, 300 ppm, seven days, 22° C., read-out: % (control) compared to the untreated check (radial growth)
[3] = test system: Colletotrichum capsici; test: Colletotrichum capsici (anthracnose) in vitro test, radial growth on Potato Dextrose Agar; assay type: cell-based; settings: Colletotrichum truncatum, 168 h; 300 ppm; seven days, 25° C.; read-out: % control compared to the untreated check (radial growth)
[4] = test system: Septoria lycopersici; test: Septoria lycopersici (leaf spot of tomato) in vitro test, radial growth on Potato Dextrose Agar; assay type: cell-based; settings: 168 h, seven days, 25° C., read-out: % control compared to the untreated check (radial growth)
[5] = test system: Fusarium culmorum; test: Fusarium culmorum (foot rot of cereals) in vitro test, radial growth on Potato Dextrose Agar; assay type: cell-based; settings: Fusarium culmorum, 168 h, read-out: % control compared to the untreated check (radial growth)
[6] = test system: Rhizoctonia solani; test: Rhizoctonia solani (rice sheath blight/potato black scurf) in vitro test, radial growth on Potato Dextrose Agar; assay type: cell-based; settings: 168 h, 300 ppm, seven days, 25° C., read-out: % control compared to the untreated check (radial growth)
[7] = test system: Pyricularia oryzae; test: microbe, parasite or virus in culture; assay type: cell-based; settings: 168 h, read-out: % control compared to the untreated check (radial growth)
[8] = test system: Alternaria solani; test: Alternaria solani (early blight of tomato/potato) in vitro test, radial growth on Potato Dextrose Agar; assay type: cell-based; settings: 168 h, 300 ppm, seven days, 25° C., read-out: % control compared to the untreated check (radial growth)
[9] = test system: Fusarium culmorum; test: Greenhouse Fusarium culmorum test in wheat, preventive; assay type: in vivo; settings: 24 h, read-out: Efficacy (% control), disease severity vs untreated check
Description: Compounds were dissolved in 2% DMSO/Acetone & then mixed with water to calibrated spray volume of 50 ml. This 50 ml spray solution was poured into the spray bottles for further applications.
To test the preventive activity of compounds, healthy young wheat plants raised in the greenhouse were sprayed with active compound preparation at the stated application rates inside the spray cabinets using hallowcone nozzles. One day after treatment, the plants were inoculated with spore suspension (2% Malt) containing 2×10^6 Fusarium culmorum inoculum. The inoculated plants were then kept in greenhouse chamber at 24° C. temperature and 80-90% relative humidity for disease expression.
A visual assessment of compound's performance was carried by rating the disease severity (0-100% scale) on treated plants on 3, 7, 10 and 15 days after application. Efficacy (% control) of the compounds was calculated by comparing the disease rating in the treatment with untreated control. The sprayed plants were also assessed for compound's phytotoxic effects by recording symptoms like necrosis, chlorosis and stunting.

[10] = test system: Botrytis cinera; test: Greenhouse Botrytis cinera test in tomato, preventive; assay type: in vivo; settings: 24 h, plants sprayed one day before inoculation, read-out: Efficacy (% control), disease severity vs untreated check

SMILES | pest or weed control at 500 ppm [1] [%] | inhibition of growth at 300 ppm [2] [%] | inhibition of growth at 300 ppm [3] [%] | inhibition of growth at 300 ppm [4] [%] | inhibition of growth at 300 ppm [5] [%] | inhibition of growth at 300 ppm [6] [%] | inhibition of growth at 300 ppm [7] [%] | inhibition of growth at 300 ppm [8] [%] | pest or weed control at 500 ppm [9] [%] | pest or weed control at 500 ppm [10] [%]
CCN(C)C=Nc1cc(C)c(Cc2ccc(C(F)(F)F)cc2)cc1C [Compound 97, N′-(2,5-dimethyl-4-(4-(trifluoromethyl)benzyl)phenyl)-N-ethyl-N-methylformimidamide] | 70 to 100 | – | – | – | – | – | – | – | – | –
CCN(C)C=Nc1cc(C)c(Cc2cc(F)cc(Cl)c2)cc1Cl [Compound 176, N′-(2-chloro-4-(3-chloro-5-fluorobenzyl)-5-methylphenyl)-N-ethyl-N-methylformimidamide] | 70 to 100 | > 80 | > 80 | > 70 | 75 | > 80 | > 75 | > 75 | – | –
CCN(C)C=Nc1cc(C)c(Cc2ccccc2Cl)cc1Cl [Compound 17, N′-(2-chloro-4-(2-chlorobenzyl)-5-methylphenyl)-N-ethyl-N-methylformimidamide] | – | > 80 | > 80 | > 70 | 75 | > 80 | > 75 | > 75 | 70 to 100 | 70 to 100
CCN(C)C=Nc1cc(C)c(Cc2ccc(S(C)(=O)=O)cc2)cc1C [Compound 12, N′-(2,5-dimethyl-4-(4-(methylsulfonyl)benzyl)phenyl)-N-ethyl-N-methylformimidamide] | – | – | – | – | – | – | > 75 | > 75 | 70 to 100 | 70 to 100
CCN(C)C=Nc1cc(C)c(Cc2ccccc2C#N)cc1C [Compound 115, N′-(4-(2-cyanobenzyl)-2,5-dimethylphenyl)-N-ethyl-N-methylformimidamide] | 70 to 100 | – | > 80 | – | – | > 80 | > 75 | > 75 | – | –
CCN(C)C=Nc1cc(C)c(Cc2cccc(Cl)c2Cl)cc1Cl [Compound 128, N′-(2-chloro-4-(2,3-dichlorobenzyl)-5-methylphenyl)-N-ethyl-N-methylformimidamide] | 70 to 100 | > 80 | > 80 | > 70 | – | > 80 | > 75 | > 75 | – | –
CCN(C)C=Nc1cc(C)c(Cc2ccc(C#N)cc2)cc1Cl [Compound 68, N′-(2-chloro-4-(4-cyanobenzyl)-5-methylphenyl)-N-ethyl-N-methylformimidamide] | 70 to 100 | – | – | > 70 | 75 | > 80 | > 75 | > 75 | – | –
Cc1cc(N=CN2CCOCC2)c(C)cc1Cc1cccc(Br)c1F [Compound 36, N-(4-(3-bromo-2-fluorobenzyl)-2,5-dimethylphenyl)-1-morpholinomethanimine] | 70 to 100 | – | – | – | – | > 80 | > 75 | – | – | –
CCN(C)C=Nc1cc(C)c(Cc2cccc([N+](=O)[O-])c2)cc1Cl [Compound 71, N′-(2-chloro-5-methyl-4-(3-nitrobenzyl)phenyl)-N-ethyl-N-methylformimidamide] | 70 to 100 | > 80 | > 80 | > 70 | 75 | > 80 | > 75 | > 75 | – | –
CCN(C)C=Nc1cc(C)c(Cc2ccccc2Cl)cc1C [Compound 18, N′-(4-(2-chlorobenzyl)-2,5-dimethylphenyl)-N-ethyl-N-methylformimidamide] | – | > 80 | > 80 | > 70 | 75 | > 80 | > 75 | > 75 | 70 to 100 | 70 to 100
CCN(C)C=Nc1cc(C)c(Cc2ccc(F)cc2F)cc1C [Compound 161, N′-(4-(2,4-difluorobenzyl)-2,5-dimethylphenyl)-N-ethyl-N-methylformimidamide] | 70 to 100 | > 80 | > 80 | > 70 | 75 | > 80 | > 75 | > 75 | – | –
CCN(C)C=Nc1cc(C)c(Cc2cccc(Br)c2)cc1Cl [Compound 13, N′-(4-(3-bromobenzyl)-2-chloro-5-methylphenyl)-N-ethyl-N-methylformimidamide] | – | > 80 | > 80 | > 70 | – | > 80 | > 75 | > 75 | 70 to 100 | 70 to 100
CCN(C)C=Nc1cc(F)c(Cc2ccccc2Cl)cc1C [Compound 174, N′-(4-(2-chlorobenzyl)-5-fluoro-2-methylphenyl)-N-ethyl-N-methylformimidamide] | 70 to 100 | > 80 | > 80 | > 70 | 75 | > 80 | > 75 | > 75 | – | –
CCN(C)C=Nc1cc(C)c(Cc2ccc(Br)cc2)cc1Cl [Compound 22, N′-(4-(4-bromobenzyl)-2-chloro-5-methylphenyl)-N-ethyl-N-methylformimidamide] | – | > 80 | > 80 | > 70 | 75 | > 80 | > 75 | > 75 | 70 to 100 | 70 to 100
CCN(C)C=Nc1cc(C)c(Cc2ccc(SC)cc2)cc1C [Compound 8, N′-(2,5-dimethyl-4-(4-(methylthio)benzyl)phenyl)-N-ethyl-N-methylformimidamide] | 70 to 100 | > 80 | > 80 | > 70 | – | > 80 | > 75 | > 75 | – | –
CCN(C)C=Nc1cc(C)c(Cc2ccc(F)c(Cl)c2)cc1C [Compound 28, N′-(4-(3-chloro-4-fluorobenzyl)-2,5-dimethylphenyl)-N-ethyl-N-methylformimidamide] | – | > 80 | > 80 | > 70 | 75 | > 80 | > 75 | > 75 | 70 to 100 | 70 to 100
CCN(C)C=Nc1cc(C)c(Cc2ccc(C(F)(F)F)cc2)cc1Cl [Compound 101, N′-(2-chloro-5-methyl-4-(4-(trifluoromethyl)benzyl)phenyl)-N-ethyl-N-methylformimidamide] | – | > 80 | – | – | – | > 80 | > 75 | > 75 | 70 to 100 | 70 to 100
CCN(C)C=Nc1cc(C)c(Cc2ccc(Cl)cc2)cc1C [Compound 7, N′-(4-(4-chlorobenzyl)-2,5-dimethylphenyl)-N-ethyl-N-methylformimidamide] | – | > 80 | > 80 | > 70 | 75 | > 80 | > 75 | > 75 | 70 to 100 | 70 to 100

— US11155517B2, “4-substituted phenylamine derivatives and their use to protect crops by fighting undesired phytopathogenic micoorganisms” (PI INDUSTRIES LTD., priority 2016, dated 2021)
